The assay concerns the target T1, HDM2 (Homo sapiens, UniProt Q00987).
T1 construct: Thioredoxin (N); made in house; host or cells: E. coli strain BL21(DE3)Rosetta
The assay is described as follows: HDM2 FRET assay (inhibition of binding of FITC labeled p53-pocket peptide to HDM2). Conditions: for IC50: read-out: FRET IC50; for inhibition at 1 µM: read-out: inh. at 1000 nM (FRET). The method, boiled down: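 Compounds were tested in 10-point serial dilution against 0.5 nM recombinant HDM2 binding 3 nM fluorescein-labeled p53-pocket peptide. Detection used 0.25 nM terbium cryptate anti-6xHis antibody in PBS buffer containing 0.01% BSA and 0.01% Tween-20.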

[1] abbreviates: 0.5 nM HDM2 (residues 17 to 125), 3nM peptide, two hour incubation at room temperature.

Read-outs that look alike come from different tables or passages of the source.

T1 sequence (Q00987 17-125): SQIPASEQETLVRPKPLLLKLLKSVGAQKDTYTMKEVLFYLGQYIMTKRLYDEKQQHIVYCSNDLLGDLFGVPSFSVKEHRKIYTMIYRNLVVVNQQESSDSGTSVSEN

With `CC[C@H](Nc1nc2nc(-c3n[nH]c(=O)o3)nc(-c3cccc(Cl)c3)c2n1C[C@H]1CC[C@H](C)CC1)c1cccc(F)c1` [Example 16.76, 5-{6-(3-chlorophenyl)-8-{[(1S)-1-(3-fluorophenyl)propyl]amino}-7-[(trans-4-methylcyclohexyl)methyl]-7H-purin-2-yl}-1,3,4-oxadiazol-2(3H)-one], the IC50 (commonly the concentration that gives 50% inhibition) under setting [1] is 13.2 nM.

In the case of `C[C@@H](Nc1nc(-c2n[nH]c(=O)o2)nc2nc(C(=O)c3ccccc3)n(C[C@H]3CC[C@H](C)CC3)c12)C1CCC1` [Example 22.22, 5-[6-{[(1R)-1-cyclobutylethyl]amino}-7-[(trans-4-methylcyclohexyl)methyl]-8-(phenylcarbonyl)-7H-purin-2-yl]-1,3,4-oxadiazol-2(3H)-one], the IC50 (Table 22) amounted to 3.93 nM.

As to `C[C@@H](Nc1nc(C(=O)O)nc2nc(COc3ccccc3)n(Cc3ccc(C(F)(F)F)cc3)c12)C1CCC1` [Example 10.1, (R)-6-((1-cyclobutylethyl)amino)-8-(phenoxymethyl)-7-(4-(trifluoromethyl)benzyl)-7H-purine-2-carboxylic acid], the IC50 (Table 10) was 37.5 nM.

Regarding `COCC(c1ccccc1)c1nc2nc(-c3noc(=O)[nH]3)nc(N[C@H](C)C3CCC3)c2n1C[C@H]1CC[C@H](C)CC1` (single isomer, unassigned) [Example 21.41, 3-(6-{[(1R)-1-cyclobutylethyl]amino}-8-[(1R or S)-2-methoxy-1-phenylethyl]-7-[(trans-4-methylcyclohexyl)methyl]-7H-purin-2-yl)-1,2,4-oxadiazol-5(4H)-one], the IC50 (Table 21) was determined as 3.25 nM.

On to `C[C@@H](Nc1nc(C(=O)O)nc2nc(N3CCOC4(CCCC4)C3)n(Cc3ccc(C(F)(F)F)cc3)c12)C1CCC1` [Example 9.25, 6-{[(1R)-1-cyclobutylethyl]amino}-8-(6-oxa-9-azaspiro[4.5]dec-9-yl)-7-[4-(trifluoromethyl)benzyl]-7H-purine-2-carboxylic acid], for which the IC50 (Table 9) came out at 19.4 nM.

As for `Cc1cccc(-c2nc3nc(C(=O)O)nc(N4CCCC4C4CCCCC4)c3n2Cc2ccc(C(F)(F)F)cc2)c1` (centres unmarked) [Example 6.80, 6-(2-cyclohexylpyrrolidin-1-yl)-8-(3-methylphenyl)-7-[4-(trifluoromethyl)benzyl]-7H-purine-2-carboxylic acid], the inhibition at 1 µM was found to be 40%.

For the compound `Cc1cccc(Nc2nc(C(=O)O)nc3nc(-c4cccc(C)c4)n(Cc4ccc(C(F)(F)F)cc4)c23)c1` [Example 6.94, 8-(3-methylphenyl)-6-[(3-methylphenyl)amino]-7-[4-(trifluoromethyl)benzyl]-7H-purine-2-carboxylic acid], the inhibition at 1 µM amounted to 32%.

On to `CC(C)c1ccnc(-c2nc3nc(S(C)(=O)=O)nc(N[C@H](C)C4CCC4)c3n2C[C@H]2CC[C@H](C)CC2)c1` [Example 14.4, N-[(1R)-1-cyclobutylethyl]-7-[(trans-4-methylcyclohexyl)methyl]-8-[4-(1-methylethyl)pyridin-2-yl]-2-(methylsulfonyl)-7H-purin-6-amine], for which the IC50 under setting [1] turned out to be 72.4 nM.

`C[C@@H](Nc1nc(S(C)(=O)=O)nc2nc(N3CCOC[C@H]3c3ccccc3)n(C[C@H]3CC[C@H](C)CC3)c12)C1CCC1` [Example 14.1, N-((R)-1-cyclobutylethyl)-7-((trans-4-methylcyclohexyl)methyl)-2-(methylsulfonyl)-8-((R)-3-phenylmorpholino)-7H-purin-6-amine]: the IC50 under setting [1] was 23.5 nM.

As for `C[C@@H](Nc1nc(-c2noc(=O)[nH]2)nc2nc(N3CCCCC3c3nccn3C)n(Cc3ccc(C(F)(F)F)cc3)c12)C1CCC1` (stereo partly drawn) [Example 9.106, 3-(6-{[(1R)-1-cyclobutylethyl]amino}-8-[2-(1-methyl-1H-imidazol-2-yl)piperidin-1-yl]-7-[4-(trifluoromethyl)benzyl]-7H-purin-2-yl)-1,2,4-oxadiazol-5(4H)-one], the IC50 (Table 9) was 11.5 nM.

`CC[C@H]1CC[C@H](Cn2c(-c3cc(C(C)C)ccn3)nc3nc(-c4noc(=O)[nH]4)nc(N[C@H](C)C4CCC4)c32)CC1` [Example 18.20, 3-(6-{[(1R)-1-cyclobutylethyl]amino}-7-[(trans-4-ethylcyclohexyl)methyl]-8-[4-(1-methylethyl)pyridin-2-yl]-7H-purin-2-yl)-1,2,4-oxadiazol-5(4H)-one]: the 50% inhibitory concentration (IC50) (Table 18) was 15.7 nM.

With `C[C@@H](Nc1nc(-c2noc(=O)[nH]2)nc2nc(C(O)(c3ccccc3)C(F)(F)F)n(C[C@H]3CC[C@H](C)CC3)c12)C1CCC1` (single isomer, unassigned) [Example 22.28], the IC50 (Table 22) stood at 27.3 nM.

For the compound `C[C@H](O)[C@H](Nc1nc2nc(-c3n[nH]c(=O)o3)nc(-c3cccc(Cl)c3)c2n1C[C@H]1CC[C@H](C)CC1)c1ccccc1` [Example 16.57, 5-{6-(3-chlorophenyl)-8-{[(1R,2S)-2-hydroxy-1-phenylpropyl]amino} -7-[(trans-4-methylcyclohexyl)methyl]-7H-purin-2-yl}-1,3,4-oxadiazol-2(3H)-one], the IC50 under setting [1] is 5.54 nM.

On to `C[C@@H](Nc1nc(-c2noc(=O)[nH]2)nc2nc(C3(c4cnn(C)c4)CC3)n(C[C@H]3CC[C@H](C)CC3)c12)C1CCC1` [Example 22.63, 3-(6-{[(1R)-1-cyclobutylethyl]amino}-7-[(trans-4-methylcyclohexyl)methyl] -8-[1-(1-methyl-1H-pyrazol-4-yl)cyclopropyl]-7H-purin-2-yl)-1,2,4-oxadiazol-5(2H)-one], for which the IC50 (Table 22) came to 7.93 nM.

`C[C@H]1CC[C@H](Cn2c(N3CCOCC34CCC4)nc3nc(-c4noc(=O)[nH]4)nc(-c4cccc(Cl)c4)c32)CC1` [Example 16.80, 3-[6-(3-chlorophenyl)-7-[(trans-4-methylcyclohexyl)methyl]-8-(8-oxa-5-azaspiro[3.5]non-5-yl)-7H-purin-2-yl]-1,2,4-oxadiazol-5(4H)-one]: the IC50 under setting [1] stood at 8.7 nM.

Take `C[C@H]1OCCN(c2nc3nc(-c4noc(=O)[nH]4)nc(-c4cccc(Cl)c4)c3n2C[C@H]2CC[C@H](C)CC2)[C@@H]1c1ccccc1` [Example 16.127, 3-{6-(3-chlorophenyl)-7-[(trans-4-methylcyclohexyl)methyl]-8-[(2R,3R)-2-methyl-3-phenylmorpholin-4-yl]-7H-purin-2-yl}-1,2,4-oxadiazol-5(4H)-one]: the IC50 under setting [1] came out at 1.06 nM.

Regarding `C[C@@H](Nc1nc(C(O)CO)nc2nc(N3CCOC[C@H]3c3ccccc3)n(C[C@H]3CC[C@H](C)CC3)c12)C1CCC1` (stereo partly drawn) [Example 12.20, 1-(6-(((R)-1-cyclobutylethyl)amino)-7-((trans-4-methylcyclohexyl)methyl)-8-((R)-3-phenylmorpholino)-7H-purin-2-yl)ethane-1,2-diol], the IC50 under setting [1] was found to be 49.4 nM.

Take `CC(c1ccccn1)N(C)c1nc2nc(-c3noc(=O)[nH]3)nc(N[C@H](C)C3CCC3)c2n1Cc1ccc(C(F)(F)F)c(F)c1` (stereo partly drawn) [Example 9.72, 3-(6-{[(1R)-1-cyclobutylethyl]amino}-7-[3-fluoro-4-(trifluoromethyl)benzyl]-8-[methyl(1-pyridin-2-ylethyl)amino]-7H-purin-2-yl)-1,2,4-oxadiazol-5(4H)-one]: the IC50 (Table 9) was 4.64 nM.

On to `CCC1CCCN1c1nc(C(=O)O)nc2nc(-c3cccc(C)c3)n(Cc3ccc(C(F)(F)F)cc3)c12` (centres unmarked) [Example 6.78, 6-(2-ethylpyrrolidin-1-yl)-8-(3-methylphenyl)-7-[4-(trifluoromethyl)benzyl]-7H-purine-2-carboxylic acid], for which the inhibition at 1 µM worked out at 33%.

Consider `Cc1cccc(-c2nc3ncnc(NC(CC(=O)O)C4CC4)c3n2Cc2ccc(C(F)(F)F)cc2)c1` (centres unmarked) [Example 6.18, 3-cyclopropyl-3-({8-(3-methylphenyl)-7-[4-(trifluoromethyl)benzyl]-7H-purin-6-yl}amino)propanoic acid], for which, where the note is “Table 6”, the IC50 was 5190 nM.

For `C[C@@H](Nc1nc(-c2noc(=O)[nH]2)nc2nc(C(C)(O)C(F)(F)F)n(C[C@H]3CC[C@H](C)CC3)c12)C1CCC1` (single isomer, unassigned) [Example 22.13], under “Table 22”, the IC50 worked out at 5.84 nM.

As to `C[C@@H](Nc1nc(-c2noc(=O)[nH]2)nc2nc(N3CCCCC3c3ccc(F)cc3)n(Cc3ccc(C(F)(F)F)cc3)c12)C1CCC1` (stereo partly drawn) [Example 9.112, 3-(6-{[(1R)-1-cyclobutylethyl]amino}-8-[2-(4-fluorophenyl)piperidin-1-yl]-7-[4-(trifluoromethyl)benzyl]-7H-purin-2-yl)-1,2,4-oxadiazol-5(4H)-one], under “Table 9”, the IC50 was 9.55 nM.

On to `CC(C)c1ccnc(-c2nc3nc(C(=O)O)nc(N[C@H](c4ccccc4)C4CCC4)c3n2Cc2ccc(C(F)(F)F)cc2)c1` [Example 6.58, 6-{[(S)-cyclobutyl(phenyl)methyl]amino}-8-[4-(1-methylethyl)pyridin-2-yl]-7-[4-(trifluoromethyl)benzyl]-7H-purine-2-carboxylic acid], for which the IC50 (Table 6) was determined as 49.2 nM.

In the case of `C[C@@H](Nc1nc(C(=O)O)nc2nc(N3CCCC3c3cccc(F)c3)n(Cc3ccc(C(F)(F)F)cc3)c12)C1CCC1` (stereo partly drawn) [Example 9.60, 6-{[(1R)-1-cyclobutylethyl]amino}-8-[2-(3-fluorophenyl)pyrrolidin-1-yl]-7-[4-(trifluoromethyl)benzyl]-7H-purine-2-carboxylic acid], where the note is “Table 9”, the IC50 worked out at 10.2 nM.

Turning to `C[C@@H](Nc1nc(-c2noc(=O)[nH]2)nc2nc(N3CCCC3c3ccccc3)n(C[C@H]3CC[C@H](C)CC3)c12)C1CCC1` (single isomer, unassigned) [Example 11.136], under “Table 11”, the IC50 was 514 nM.

On to `C[C@@H](Nc1nc(-c2noc(=O)[nH]2)nc2nc(C(C)(F)c3ccccc3F)n(C[C@H]3CC[C@H](C)CC3)c12)C1CCC1` (single isomer, unassigned) [Example 22.65], for which the IC50 (Table 22) was found to be 22.6 nM.
